Results on three compounds are retold here after patent US20260083751A1, “ALLOSTERIC MODULATORS OF ANDROGEN RECEPTOR COACTIVATOR RECRUITMENT FOR CRPC THERAPY” (University of Pittsburgh – Of the Commonwealth System of …, priority 2022, published 2026).

Like-named read-outs stand apart in the source and are kept apart here.

What all share (assay type): cell-based
One data set has as its system PC-3 cells. Put plainly: Prostate cancer cell line growth inhibition assay, PC-3. The settings on record: read-out: AR negative PC-3 GI50. How it is done: Prostate Cancer Cell Line Growth Inhibition Assays: The PC-3, DU-145, LNCaP, C4-2, and 22Rv1 PC cell line growth inhibition assays have been described previously (Fancher et al., Assay Drug Dev Technol. 2016, 14:453-477; Fancher et al., Assay Drug Dev Technol. 2019, 17:364-386). On day 1, each PC cell line was harvested, counted, and seeded into two 384-well assay plates, a time zero (T0) and a time 72 h (T72) plate. […] On day 2, 25 μL of the CellTiter-Glo® (CTG) (Promega Corporation, Madison, WI) detection reagent was dispensed into the wells of the TO assay plate using a Matrix electronic multichannel pipette, and the RLUs were captured on the SpectraMax® M5e (Molecular Devices LLC, Sunnyvale, CA) microtiter plate reader. […] On day 5, 25 μL of the CTG detection reagent was dispensed into the wells of the T72 assay plate using a Matrix electronic multichannel pipette, and the RLU's were captured on the SpectraMax® M5e microtiter plate reader platform.
For the 96-well AR-LBD H^3-DHT radioligand binding assay, eight minimum and maximum plate control wells were utilized to normalize the data. […] To normalize the 72 h compound exposure PC growth inhibition data, the signals from the compound treated wells were processed and expressed as % of the T72 DMSO plate controls. […]

In data set [1] the test system is AR-V7 directed transcriptional activation in PC3-AR-V7-EGFP cells. Put plainly: AR-V7 driven PSA6.1-Luc and UBE2C-Luc reporter assays, results stated jointly. Particulars: both reporters; read-out: IC50s, both PSA6-6.1-Luc and UBE2C-Luc reporters in PC3-AR-V7-EGFP cells (potency range in words). The protocol: PSA6.1 Promoter Driven Luciferase Reporter Assay in PC3-AR-V7-GFP Cells: PC3-AR-V7-GFP cells were bulk transfected with a mixture of FuGENE® HD transfection agent and the PSA-6.1-Luc reporter plasmid (20 ng/well) combined at a 3:1 (μL:μg) ratio in Opti-MEM™ medium (Gibco, Gaithersburg, MD) that had been incubated for 25 min at RT before being added to PC3-AR-V7-GFP cells that were suspended in RPMI 1640 (Gibco) media containing 1% L-glutamine (Invitrogen), and 10% fetal bovine serum (Gemini Bio-products). Bulk transfected PC3-AR-V7-GFP cells were seeded into white opaque 384-well assay plates (Greiner Bio-one, #781080) at 3,000 cells per well in a volume of 40 μL and incubated at 5% CO2, 37° C., and 95% humidity for 24 h. After 24 h, 5 μL of compounds were transferred to assay wells and the plates were returned to the incubator for an additional 24 h before 25 μL of BrightGlo® luciferase reagent (Promega) was added to the wells and the RLU's were captured on a SpectraMax® M5e plate reader (Molecular Devices LLC) as described previously (Fancher et al., Assay Drug Dev Technol. 2019, 17:364-386).
UBE2C Promoter Driven Luciferase Reporter Assay in PC3-AR-V7-GFP Cells: The pGL4.28-UBE2C 20bpX3 luciferase reporter plasmid (Xu et al., Cancer Res 2015, 75:3663-71) was provided by Dr. Yan Dong from Tulane University. […]
For orientation: In a reporter assay the amount or activity of a reporter protein is the signal.

Data set [2] can be described thus: Cytotoxicity counter screens to the reporter assays. The settings on record: counter screens to M2H, PSA-Luc, AR-V7 reporters, read-out: IC50 in cytotoxicity counter screen. In general terms: Counterscreens check selectivity or assay interference.

The GI50 is the concentration giving 50% growth inhibition. As to `Cc1ccccc1-c1cc(O)c2c(c1)CN(c1nc(C(N)=O)cs1)CCO2` [Compound S1-1], the 50% growth inhibitory concentration (GI50) in the data set with PC-3 cells (72 h, listed as 1) was 61.1 µM. Besides, the IC50 in data set [1] fell in the range of 10 to 100 µM.

As for `Cc1nc(N)cc(N2CCOc3c(O)cc(-c4ccccc4C)cc3C2)n1` [Compound S1-2], the IC50 is 45.6 µM in data set [2] and 10 to 100 µM in data set [1]. For the same compound, the IC50 at 24 h in data set [2] (human, PC3-AR-V7-EGFP cells) is 45.9 µM.

Turning to `Cc1c(-c2ccccc2F)[nH]c2ccc(CNC(=O)CCc3cn[nH]c3)cc12` [Compound S3-11], in the data set with PC-3 cells (Homo sapiens, PC-3, 72 h), the concentration for 50% growth inhibition (GI50) is 28.4 µM.
